Experimental data from patent US11648254B2 (Kumquat Biosciences Inc., priority 2021, dated 2023).
Like-named read-outs stand apart in the source and are kept apart here.

How the values were obtained:
SOS1 = SOS1 (Homo sapiens (Human), UniProt Q07889); assay: Ras-SOS interaction assay (HTRF); format: biochemical
[1] = system: MIA PaCa-2 cells (K-Ras G12C); assay: Ras-SOS cellular growth inhibition assay (CellTiter-Glo, 3D); format: cell-based
Description: MIA PaCa-2 (ATCC CRL-1420) and NCI-H1792 (ATCC CRL-5895) cell lines comprise a G12C mutation can be used to assess Ras cellular signaling in vitro, e.g., in response to a subject compound of the present disclosure. […] Cell culture medium (comprising, for example, MIA PaCa-2 cells) is prepared with DMEM/Ham's F12 (e.g., with stable Glutamine, 10% FCS, and 2.5% Horse Serum. NCI-H1792 culture medium is prepared with RPMI 1640 (e.g., with stable Glutamine) and 10% FCS. A CellTiter-Glo (CTG) luminescent based assay (Promega) is used to assess growth of the cells, as a measurement of the ability of the compounds herein to inhibit Ras signaling in the cells. The cells (e.g., 800-1200 per well) are seeded in their respective culture medium in standard tissue culture-treated ultra-low attachment surface 96-well format plates (Corning Costar #3474). The day after plating, cells are treated with a dilution series (e.g., a 9 point 3-fold dilution series) of the compounds herein (e.g., approximately 125 μl final volume per well). Cell viability can be monitored (e.g., approximately 5 days later) according to the manufacturer's recommended instructions, where the CellTiter-Glo reagent is added (e.g., approximately 65 μl), vigorously mixed, covered, and placed on a plate shaker (e.g., approximately for 20 min) to ensure sufficient cell lysis prior to assessment of luminescent signal. The IC50 values are determined using the four-parameter fit. The resulting IC50 value is a measurement of the ability of the compounds herein to reduce cell growth of Ras-driven cells as representative tumor cells.

[2] = system: NCI-H1975 cells (EGFR T790M L858R); assay: EGFR-SOS cellular inhibition assay (CellTiter-Glo, 3D); format: cell-based
[3] = K-RasG13D utilized, read-out: IC50 inhibition of SOS
[4] = K-RasG13D, read-out: IC50 value against SOS1
[5] = Homo sapiens, MIA PaCa-2, 120 h, MIA PaCa-2, 3D proliferation, about 5 days, read-out: Bio-Cell-Prolif-3D (MiaPaca2 IC50)
[6] = Homo sapiens, MIA PaCa-2, MIA PaCa-2, read-out: IC50 in inhibiting MIA PaCa-2 cell growth
[7] = Homo sapiens, 120 h, NCI-H1975, 3D proliferation, about 5 days, read-out: Bio-Cell-Prolif-3D (H1975 IC50)
[8] = Homo sapiens, NCI-H1975, EGFR T790M L858R, read-out: IC50 in inhibiting growth of NCI-H1975 cell line

Compound	IC50 (SOS1; [3]) [nM]	IC50 (SOS1; [4]) [nM]	IC50 ([1]; MIA PaCa-2, 3D proliferation, about 5 days, read-out: Bio-Cell-Prolif-3D (MiaPaca2 IC50)) [nM]	IC50 ([1]; MIA PaCa-2, read-out: IC50 in inhibiting MIA PaCa-2 cell growth) [nM]	IC50 ([2]; NCI-H1975, 3D proliferation, about 5 days, read-out: Bio-Cell-Prolif-3D (H1975 IC50)) [nM]	IC50 ([2]; NCI-H1975, EGFR T790M L858R, read-out: IC50 in inhibiting growth of NCI-H1975 cell line) [nM]	IC50 [1, 5] [nM]	IC50 [1, 6] [nM]	IC50 [2, 7] [nM]	IC50 [2, 8] [nM]
4-(4-((1-(3-(difluoro(tetrahydrofuran-3-yl)methyl)-2-fluorophenyl)ethyl)amino)-7-methoxy-2-methylpyrido[2,3-d]pyrimidin-6-yl)tetrahydro-2H-thiopyran 1,1-dioxide [Compound 148]	< 100	< 50	≤ 1000	< 500	≤ 1000	< 500				
Cc1nc(N[C@H](C)c2cccc(C(F)(F)C(C)O)c2F)c2cc(C3(C#N)CC3)c(Cl)nc2n1 (stereo in doubt) [Compound 333, 1-(7-chloro-4-(((R)-1-(3-((S)-1,1-difluoro-2-hydroxypropyl)-2-fluorophenyl)ethyl)amino)-2-methylpyrido[2,3-d]pyrimidin-6-yl)cyclopropane-1-carbonitrile]	< 100	< 50					≤ 1000	< 500	≤ 1000	< 500
COc1nc2nc(C)nc(N[C@H](C)c3cccc(C(F)F)c3F)c2cc1C1(C#N)CC1 [Compound 101, 1-(4-((R)-1-(2-fluoro-3-(difluoromethyl)phenyl)ethylamino)-7-methoxy-2-methylpyrido[2,3-d]pyrimidin-6-yl)cyclopropanecarbonitrile]	< 100						≤ 1000		≤ 1000	
Cc1nc(N[C@H](C)c2cccc(C(F)F)c2F)c2cc(C3CCN(C(C)C)CC3)c(Cl)nc2n1 [Compound 104, (R)-7-chloro-N-(1-(3-(difluoromethyl)-2-fluorophenyl)ethyl)-6-(1-isopropylpiperidin-4-yl)-2-methylpyrido[2,3-d]pyrimidin-4-amine]	< 100	< 50					≤ 1000	< 500	≤ 1000	< 500
COc1nc2nc(C)nc(N[C@H](C)c3cccc(C(F)F)c3F)c2cc1CN1CCN(C(C)C)CC1 [Compound 105, (R)—N-(1-(3-(difluoromethyl)-2-fluorophenyl)ethyl)-6-((4-isopropylpiperazin-1-yl)methyl)-7-methoxy-2-methylpyrido[2,3-d]pyrimidin-4-amine]	< 100	< 50					≤ 1000	< 500	≤ 1000	< 500
COc1nc2nc(C)nc(N[C@H](C)c3cccc(C(F)F)c3F)c2cc1N1CCNCC1 [Compound 110, (R)-N-(1-(3-(difluoromethyl)-2-fluorophenyl)ethyl)-7-methoxy-2-methyl-6-(piperazin-1-yl)pyrido[2,3-d]pyrimidin-4-amine]	< 100						≤ 1000		≤ 1000	
COc1nc2nc(C)nc(N[C@H](C)c3cccc(C(F)F)c3F)c2cc1C1CCN(C(C)C)CC1 [Compound 112, (R)-N-(1-(3-(difluoromethyl)-2-fluorophenyl)ethyl)-6-(1-isopropylpiperidin-4-yl)-7-methoxy-2-methylpyrido[2,3-d]pyrimidin-4-amine]	< 100	< 50					≤ 1000	< 500	≤ 1000	< 500
COc1nc2nc(C)nc(N[C@H](C)c3cccc(C(F)F)c3F)c2cc1C1CCN(C)CC1 [Compound 113, (R)-N-(1-(3-(difluoromethyl)-2-fluorophenyl)ethyl)-7-methoxy-2-methyl-6-(1-methylpiperidin-4-yl)pyrido[2,3-d]pyrimidin-4-amine]	< 100	< 50					≤ 1000	< 500	≤ 1000	< 500
COc1nc2nc(C)nc(N[C@H](C)c3cccc(C(F)F)c3F)c2cc1S(=O)(=O)N1CCNCC1 [Compound 114, (R)-N-(1-(3-(difluoromethyl)-2-fluorophenyl)ethyl)-7-methoxy-2-methyl-6-(piperazin-1-ylsulfonyl)pyrido[2,3-d]pyrimidin-4-amine]	< 100	< 50					≤ 1000		≤ 1000	
CCN1CCN(c2cc3c(N[C@H](C)c4cccc(C(F)F)c4F)nc(C)nc3nc2OC)CC1 [Compound 115, (R)-N-(1-(3-(difluoromethyl)-2-fluorophenyl)ethyl)-6-(4-ethylpiperazin-1-yl)-7-methoxy-2-methylpyrido[2,3-d]pyrimidin-4-amine]	< 100	< 50					≤ 1000	< 500	≤ 1000	
COc1nc2nc(C)nc(N[C@H](C)c3cccc(C(F)F)c3F)c2cc1C1CCN(C(=O)NC2COC2)CC1 [Compound 116, (R)-4-(4-((1-(3-(difluoromethyl)-2-fluorophenyl)ethyl)amino)-7-methoxy-2-methylpyrido[2,3-d]pyrimidin-6-yl)-N-(oxetan-3-yl)piperidine-1-carboxamide]		< 50					≤ 1000		≤ 1000	
COc1nc2nc(C)nc(N[C@H](C)c3cccc(C(F)F)c3F)c2cc1C1(C#N)CCN(C(C)C)CC1 [Compound 117, (R)-4-(4-((1-(3-(difluoromethyl)-2-fluorophenyl)ethyl)amino)-7-methoxy-2-methylpyrido[2,3-d]pyrimidin-6-yl)-1-isopropylpiperidine-4-carbonitrile]	< 100	< 50					≤ 1000		≤ 1000	< 500
CCN1CCC(c2cc3c(N[C@H](C)c4cccc(C(F)F)c4F)nc(C)nc3nc2OC)CC1 [Compound 119, (R)-N-(1-(3-(difluoromethyl)-2-fluorophenyl)ethyl)-6-(1-ethylpiperidin-4-yl)-7-methoxy-2-methylpyrido[2,3-d]pyrimidin-4-amine]	< 100	< 50					≤ 1000	< 500	≤ 1000	< 500
COc1nc2nc(C)nc(N[C@H](C)c3cccc(C(F)F)c3F)c2cc1N1CCN(C)CC1 [Compound 123, (R)-N-(1-(3-(difluoromethyl)-2-fluorophenyl)ethyl)-7-methoxy-2-methyl-6-(4-methylpiperazin-1-yl)pyrido[2,3-d] pyrimidin-4-amine]		< 50					≤ 1000	< 500	≤ 1000	
COc1nc2nc(C)nc(N[C@H](C)c3cccc(C(F)F)c3F)c2cc1[C@H]1C[C@@H](NC(=O)C2COC2)C1 [Compound 125, N-((1S,3s)-3-(4-(((R)-1-(3-(difluoromethyl)-2-fluorophenyl)ethyl)amino)-7-methoxy-2-methylpyrido[2,3-d]pyrimidin-6-yl)cyclobutyl)oxetane-3-carboxamide]		< 50					≤ 1000	< 500	≤ 1000	< 500
COc1nc2nc(C)nc(N[C@H](C)c3cccc(C(F)F)c3F)c2cc1C1(C#N)CCS(=O)(=O)CC1 [Compound 126, (R)-4-(4-((1-(3-(difluoromethyl)-2-fluorophenyl)ethyl)amino)-7-methoxy-2-methylpyrido[2,3-d]pyrimidin-6-yl)tetrahydro-2H-thiopyran-4-carbonitrile 1,1-dioxide]	< 100	< 50					≤ 1000		≤ 1000	< 500
